{"source": "patent US20050272098A1", "about": "“Quantitation of endothelial microparticles” (priority 2004, published 2005)", "key": {"HCAEC": {"tested_on": "HCAEC", "test": "Release of CAM-specific EMP from TNF-α-activated HCAEC, two-color flow cytometry with TruCount beads", "type": "cell-based, human", "conditions": "24 hours", "protocol": "HCAECs were purchased from Cambrex Bio Science (Walkersville, Md.) and cultured according to the supplier's specifications. All experiments were performed on confluent cells. EC were treated with 10 ng/mL TNF-α alone or with the addition of fluvatstain (0.1 μmol/mL) or ROK inhibitor, Y-27632 (10 μmol M/L). Controls were un-treated. After 24 hours culture supernatants from flasks containing HCAEC were collected and centrifuged for 30 min at 17,570×g, (4° C.). Pellets were re-suspended in 1 mL of PBS and were analyzed on the same day. For single platform method, 3 μL each of FITC-conjugated and PE-conjugated monoclonal antibodies against the above mentioned CAMs plus 50 μL of re-suspended pellet were added to tubes (two antibodies/tube) preloaded with fluorescent TruCount™ bead lyophilized pellets (Becton Dickinson Biosciences, San Jose, Calif.). Tubes were incubated for 20 min at room temperature. Analysis of EMPs was performed using a FACScan Flow Cytometer (Becton Dickinson Biosciences, San Jose, Calif.). The EMPs were excited with 488 nm light from a 15 mW argon laser. Logarithmic green and red fluorescences of FITC and PE were measured through 530/30 nm and 585/42 nm bandpass filters, respectively. Data from 2,000 events were acquired and analyzed with the use of CELLQuest™ software (version 3.3, Becton Dickinson). The absolute number of EMPs was calculated from the appropriate dot plot values entered into the following formula: [formula] The total number of beads per tube is supplied by the manufacturer and varies among lot numbers. RhoA Activity Statistical analysis was performed using SPSS 10.0.7 statistical software (SPSS Inc., Chicago, Ill.). Values are stated as mean±SEM. One-way ANOVA was used to compare means from three or more groups. In cases where the data were not normally distributed, the Mann-Whitney rank sum test was used. A value of p<0.05 was considered as significant for all tests."}, "RhoA": {"tested_on": "RhoA", "test": "RhoA activity pull-down assay (Rhotekin Rho Binding Domain agarose, western blot) in HCAEC", "type": "cell-based, human", "conditions": "TNF-α 10 ng/mL, 24 hours", "protocol": "HCAECs were purchased from Cambrex Bio Science (Walkersville, Md.) and cultured according to the supplier's specifications. All experiments were performed on confluent cells. EC were treated with 10 ng/mL TNF-α alone or with the addition of fluvatstain (0.1 μmol/mL) or ROK inhibitor, Y-27632 (10 μmol M/L). Controls were un-treated. After 24 hours culture supernatants from flasks containing HCAEC were collected and centrifuged for 30 min at 17,570×g, (4° C.). Pellets were re-suspended in 1 mL of PBS and were analyzed on the same day. RhoA activity was determined by a pull-down assay. The cell lysates were incubated with Rhotekin Rho Binding Domain agarose for 45 minutes. The agarose beads were collected and electrophoresed in 8-16% SDS-PAGE gel (Cambrex, Rockland, Me.). GDP and GTP-labeling of cell lysates served as negative and positive controls, respectively. Western blotting was performed with RhoA antibody at a dilution of 1:200. The blot densities were analyzed with Mocha Image Analysis (version 1.2.10)."}, "[1]": {"conditions": "HCAEC, TNF-α 10 ng/mL plus Fluvastatin 0.1 μM/L, mean ± SEM"}, "[2]": {"conditions": "HCAEC, TNF-α 10 ng/mL plus Fluvastatin 0.1 μM/L, mean ± SEM, listed as Flu"}, "[3]": {"conditions": "HCAEC, TNF-α 10 ng/mL plus Y-27632 (10 μmol M/L), mean ± SEM"}, "[4]": {"conditions": "HCAEC, TNF-α 10 ng/mL alone, mean ± SEM, six experiments"}, "[5]": {"conditions": "HCAEC, TNF-α 10 ng/mL, versus control, not significant"}}, "note": "Where “and” joins values, the source holds several entries; their conditions need not be identical. Equal values may be shown once.", "data": [{"molecule": "CC(C)n1c(/C=C/C(O)CC(O)CC(=O)O)c(-c2ccc(F)cc2)c2ccccc21", "note": "(centres unmarked) [Fluvastatin]", "values": [{"measurement": "absolute count of EMP, CD51 (Vitronectin)", "setting": "HCAEC; [1]", "result": "43 ±7.3 ×10^6/mL"}, {"measurement": "absolute count of EMP, CD62E (ELAM)", "setting": "HCAEC; [1]", "result": "80 ± 7 ×10^6/mL"}, {"measurement": "absolute count of EMP, CD105 (Endoglin)", "setting": "HCAEC; [1]", "result": "45±7.6 ×10^6/mL"}, {"measurement": "absolute count of EMP, CD31 (PECAM-1)", "setting": "HCAEC; [2]", "result": "231 ± 80 ×10^6/mL"}, {"measurement": "absolute count of EMP, CD51 (Vitronectin)", "setting": "HCAEC; [2]", "result": "43 ± 7 ×10^6/mL"}, {"measurement": "absolute count of EMP, CD 54 (ICAM-1)", "setting": "HCAEC; [2]", "result": "125 ± 35 ×10^6/mL"}, {"measurement": "absolute count of EMP, CD105 (Endoglin)", "setting": "HCAEC; [2]", "result": "45 ± 8 ×10^6/mL"}, {"measurement": "absolute count of EMP, CD106 (VCAM-1)", "setting": "HCAEC; [2]", "result": "167 ± 45 ×10^6/mL"}, {"measurement": "suppression of CD62+ EMP", "setting": "HCAEC; TNF-α-activated HCAEC, versus TNF-α alone, not statistically significant", "result": 19, "unit": "%"}]}, {"molecule": "C[C@@H](N)[C@H]1CC[C@H](C(=O)Nc2ccncc2)CC1", "note": "[Y-27632]", "values": [{"measurement": "absolute count of EMP, CD51 (Vitronectin)", "setting": "HCAEC; [3]", "result": "44 ± 10 ×10^6/mL"}, {"measurement": "absolute count of EMP, CD62E (ELAM)", "setting": "HCAEC; [3]", "result": "65 ± 13 ×10^6/mL"}, {"measurement": "absolute count of EMP, CD105 (Endoglin)", "setting": "HCAEC; [3]", "result": "56±13 ×10^6/mL"}]}, {"molecule": "tumor necrosis factor-α [TNF-α]", "values": [{"measurement": "absolute count of EMP, CD31 (PECAM-1)", "setting": "HCAEC; [4]", "result": "233±77 ×10^6/mL"}, {"measurement": "absolute count of EMP, CD51 (Vitronectin)", "setting": "HCAEC; [4]", "result": "76.4±46 ×10^6/mL and 76 ± 46 ×10^6/mL"}, {"measurement": "absolute count of EMP, CD 54 (ICAM-1)", "setting": "HCAEC; [4]", "result": "129 ± 44 ×10^6/mL"}, {"measurement": "absolute count of EMP, CD62E (ELAM)", "setting": "HCAEC; [4]", "result": "99 ± 3 ×10^6/mL"}, {"measurement": "absolute count of EMP, CD105 (Endoglin)", "setting": "HCAEC; [4]", "result": "124±34 ×10^6/mL"}, {"measurement": "increase of CD54 positive EMP", "setting": "HCAEC; [5]", "result": 57, "unit": "%"}, {"measurement": "increase of CD62 positive EMP", "setting": "HCAEC; [5]", "result": 15, "unit": "%"}, {"measurement": "RhoA activation", "setting": "RhoA", "result": "induced"}]}]}
